# Reference: patent US12139492B2 (Endotarget Inc., priority 2021, dated 2024)
# Read-outs that look alike come from different tables or passages of the source.
# Assays:
# BTK [1] = biological target: T1, BTK (Homo sapiens, UniProt Q06187); assay: Degradation of BTK protein in Mino cells (Western blot; DC50, Dmax); details: Mino mantle cell lymphoma cells, various concentrations, 24 hours
# Experimental: Namalwa, JeKo-1, or Mino cells were plated in 24-well plates at a density of 10^5 cells/well. Media containing various drug concentrations were added on the day following plating (day 0) and allowed to incubate for 24 hours for Western blot. Media with the tested compound was changed every other day. […] Media were removed and dishes were washed with 1×DPBS. Lysates were made by adding 150 μL of complete lysis solution and scraping cells into a 1.5 mL microcentrifuge tube. Lysates were placed on a rotisserie at 4° C. for 30 min and then spun at 4° C. at 12000 rcf for 10 min. Supernatants were assayed for protein content, snap-frozen, and stored a −80° C. if not run immediately. Then 50 μg of protein was subjected to Western blot protocol. […] They were then imaged on a LICOR infrared scanner.
# BTK [2] = biological target: T1, BTK; assay: Degradation of BTK protein in Namalwa cells (Western blot; DC50, Dmax); details: for DC50: cell line not given; for degradation of BTK protein: Namalwa B lymphocyte cells, various concentrations, 24 hours, Western blot
# Mino cells = assay: Antiproliferative effect, MTS cell viability assay, Mino cells; format: cell-based; details: Mino mantle cell lymphoma cells, read-out: IC50 (anti-proliferation) Mino cells
# Summary of the method: (§1)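 Steps: seed B-cell lymphoma line; add compound at 0, 0.001, 0.01, 0.1, 1 or 10 μM; incubate 72 h; add MTS and read reduced tetrazolium (formazan) absorbance at 490 nm.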
# JeKo-1 cells = assay: Antiproliferative effect, MTS cell viability assay, JeKo-1 cells; format: cell-based; details: JeKo-1 mantle cell lymphoma cells, read-out: IC50 (anti-proliferation) JeKO-1 cells
# Summary of the method: as §1
# BTK [3] = biological target: T1, BTK; assay: Degradation of BTK protein in JeKo-1 cells (Western blot; DC50, Dmax); details: JeKo-1 mantle cell lymphoma cells, various concentrations, 24 hours
# BTK [4] = biological target: T1, BTK; assay: BTK degradation, DC50 and Dmax of Table 1 (cell line not given); format: cell-based; design: endogenous in cells; details: for DC50: concentration giving 50% reduction of BTK expression level
# [5] = read-out: DC50 (BTK degradation), concentration giving 50% reduction of BTK expression level
# [6] = read-out: Dmax (BTK degradation)
# T1 sequence (Q06187 whole entry): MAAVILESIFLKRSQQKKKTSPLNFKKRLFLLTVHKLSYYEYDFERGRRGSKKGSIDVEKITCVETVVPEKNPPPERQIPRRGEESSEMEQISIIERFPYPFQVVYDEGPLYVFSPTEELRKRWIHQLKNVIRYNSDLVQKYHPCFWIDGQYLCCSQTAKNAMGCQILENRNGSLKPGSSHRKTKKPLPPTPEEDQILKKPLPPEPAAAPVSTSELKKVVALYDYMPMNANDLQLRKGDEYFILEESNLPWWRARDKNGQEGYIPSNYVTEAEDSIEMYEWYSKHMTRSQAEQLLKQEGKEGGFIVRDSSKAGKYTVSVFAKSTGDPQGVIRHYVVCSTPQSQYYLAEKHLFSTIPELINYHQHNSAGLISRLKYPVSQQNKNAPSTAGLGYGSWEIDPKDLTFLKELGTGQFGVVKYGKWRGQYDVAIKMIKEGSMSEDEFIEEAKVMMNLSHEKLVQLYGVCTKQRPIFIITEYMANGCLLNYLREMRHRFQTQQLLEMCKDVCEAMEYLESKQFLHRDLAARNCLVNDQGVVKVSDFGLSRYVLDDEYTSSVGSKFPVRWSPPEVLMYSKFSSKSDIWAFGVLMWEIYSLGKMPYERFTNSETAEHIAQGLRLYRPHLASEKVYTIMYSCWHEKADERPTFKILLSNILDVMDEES
degradation of BTK protein (BTK [1]),DC50 (BTK [2]; [5]),Dmax (BTK [2]; [6]),degradation of BTK protein (BTK [3]),degradation of BTK protein (BTK [2]),Dmax (BTK [2]),DC50 (BTK [2]; BTK degradation),Compound,"IC50 (Mino cells; Homo sapiens, MINO)",IC50 (JeKo-1 cells; Homo sapiens),IC50 (Mino cells),IC50 (JeKo-1 cells),Dmax (BTK [4]),DC50 (BTK [4]),IC50 (Mino cells; Homo sapiens)
dose-dependent degradation,< 0.01 µM,> 90%,,,,,"Nc1ncnc2c1c(-c1ccc(Oc3ccccc3)cc1)nn2C1CCN(C(=O)N2CC(N3CCN(c4ccc5c(c4)C(=O)N(C4CCC(=O)NC4=O)C5=O)CC3)C2)CC1 (stereo not shown) [Compound 477, 5-(4-(1-(4-(4-amino-3-(4-phenoxyphenyl)-1H-pyrazolo[3,4-d]pyrimidin-1-yl)piperidine-1-carbonyl)azetidin-3-yl)piperazin-1-yl)-2-(2,6-dioxopiperidin-3-yl)isoindoline-1,3-dione]",< 1 µM,< 1 µM,,,,,
dose-dependent degradation,< 0.01 µM,> 90%,dose-dependent degradation,dose-dependent degradation,,,"Nc1ncnc2c1c(-c1ccc(Oc3ccccc3)cc1)nn2C1CCN(CCOCCOCCN2CCC(c3ccc4c(c3)CN(C3CCC(=O)NC3=O)C4=O)CC2)CC1 (stereo not shown) [Compound 419, 3-(5-(1-(2-(2-(2-(4-(4-amino-3-(4-phenoxyphenyl)-1H-pyrazolo[3,4-d]pyrimidin-1-yl)piperidin-1-yl)ethoxy)ethoxy)ethyl)piperidin-4-yl)-1-oxoisoindolin-2-yl)piperidine-2,6-dione]",,,1 to 10 µM,1 to 10 µM,,,
dose-dependent degradation,,,dose-dependent degradation,dose-dependent degradation,,,"Nc1ncnc2c1c(-c1ccc(Oc3ccccc3)cc1)nn2[C@@H]1CCCN(C(=O)N2CCC(N3CCN(c4ccc5c(c4)CN(C4CCC(=O)NC4=O)C5=O)CC3)CC2)C1 (stereo partly drawn) [Compound 52, 3-(5-(4-(1-((R)-3-(4-amino-3-(4-phenoxyphenyl)-1H-pyrazolo(3,4-d)pyrimidin-1-yl)piperidine-1-carbonyl)piperidin-4-yl)piperazin-1-yl)-1-oxoisoindolin-2-yl)piperidine-2,6-dione]",< 1 µM,< 1 µM,,,> 90%,< 0.01 µM,
dose-dependent degradation,< 0.01 µM,> 90%,,,,,"Nc1ncnc2c1c(-c1ccc(Oc3ccccc3)cc1)nn2C1CCN(C(=O)N2CC(N3CCN(c4ccc5c(c4)CN([C@H]4CCC(=O)NC4=O)C5=O)CC3)C2)CC1 [Compound 484, (S)-3-(5-(4-(1-(4-(4-amino-3-(4-phenoxyphenyl)-1H-pyrazolo[3,4-d]pyrimidin-1-yl)piperidine-1-carbonyl)azetidin-3-yl)piperazin-1-yl)-1-oxoisoindolin-2-yl)piperidine-2,6-dione]",< 1 µM,< 1 µM,,,,,
dose-dependent degradation,< 0.01 µM,> 90%,,dose-dependent degradation,,,"Nc1ncnc2c1c(-c1ccc(Oc3ccccc3)cc1)nn2C1CCN(C(=O)N2CC(N3CCN(c4ccc5c(c4)CN(C4CCC(=O)NC4=O)C5=O)CC3)C2)CC1 (stereo not shown) [Compound 478, 3-(5-(4-(1-(4-(4-amino-3-(4-phenoxyphenyl)-1H-pyrazolo[3,4-d]pyrimidin-1-yl)piperidine-1-carbonyl)azetidin-3-yl)piperazin-1-yl)-1-oxoisoindolin-2-yl)piperidine-2,6-dione]",< 1 µM,< 1 µM,,,,,
dose-dependent degradation,< 0.01 µM,> 90%,dose-dependent degradation,dose-dependent degradation,,,"Nc1ncnc2c1c(-c1ccc(Oc3ccccc3)cc1)nn2C1CCN(CC2CN(CC3CCN(c4ccc5c(c4)C(=O)N(C4CCC(=O)NC4=O)C5=O)CC3)C2)CC1 (stereo not shown) [Compound 439, 5-(4-((3-((4-(4-amino-3-(4-phenoxyphenyl)-1H-pyrazolo(3,4-d)pyrimidin-1-yl)piperidin-1-yl)methyl)azetidin-1-yl)methyl)piperidin-1-yl)-2-(2,6-dioxopiperidin-3-yl)isoindoline-1,3-dione]",< 1 µM,1 to 10 µM,,,,,
dose-dependent degradation,< 0.01 µM,> 90%,dose-dependent degradation,dose-dependent degradation,,,"Nc1ncnc2c1c(-c1ccc(Oc3ccccc3)cc1)nn2C1CCN(CC2CCN(/C=C/C(=O)CN3CCN(c4ccc5c(c4)CN(C4CCC(=O)NC4=O)C5=O)CC3)CC2)CC1 (stereo not shown) [Compound 420, (E)-3-(5-(4-(4-(4-((4-(4-amino-3-(4-phenoxyphenyl)-1H-pyrazolo[3,4-d]pyrimidin-1-yl)piperidin-1-yl)methyl)piperidin-1-yl)-2-oxobut-3-en-1-yl)piperazin-1-yl)-1-oxoisoindolin-2-yl)piperidine-2,6-dione]",1 to 10 µM,1 to 10 µM,,,,,
dose-dependent degradation,,,dose-dependent degradation,dose-dependent degradation,> 90%,< 0.01 µM,"Nc1ncnc2c1c(-c1ccc(Oc3ccccc3)cc1)nn2C1CCN(C2CCN(CC3CCN(c4ccc5c(c4)C(=O)N(C4CCC(=O)NC4=O)C5=O)CC3)CC2)CC1 (stereo not shown) [Compound 213, 5-(4-((4-(4-amino-3-(4-phenoxyphenyl)-1H-pyrazolo(3,4-d)pyrimidin-1-yl)-(1,4′-bipiperidin)-1′-yl)methyl)piperidin-1-yl)-2-(2,6-dioxopiperidin-3-yl)isoindoline-1,3-dione]",< 1 µM,< 1 µM,,,,,
dose-dependent degradation,< 0.01 µM,> 90%,,dose-dependent degradation,,,"Nc1ncnc2c1c(-c1ccc(Oc3ccccc3)cc1)nn2C1CCN(C2CCN(CC3CCN(c4ccc5c(c4)C(=O)N(C4CCC(=O)NC4=O)C5=O)CC3)C2)CC1 (stereo not shown) [Compound 449, 5-(4-((3-(4-(4-amino-3-(4-phenoxyphenyl)-1H-pyrazolo(3,4-d)pyrimidin-1-yl)piperidin-1-yl)pyrrolidin-1-yl)methyl)piperidin-1-yl)-2-(2,6-dioxopiperidin-3-yl)isoindoline-1,3-dione]",< 1 µM,< 1 µM,,,,,

Compound,degradation of BTK protein (BTK [1]),DC50 (BTK [2]; [5]),Dmax (BTK [2]; [6]),degradation of BTK protein (BTK [3]),degradation of BTK protein (BTK [2]),Dmax (BTK [2]),DC50 (BTK [2]; BTK degradation),"IC50 (Mino cells; Homo sapiens, MINO)",IC50 (JeKo-1 cells; Homo sapiens),IC50 (Mino cells),IC50 (JeKo-1 cells),Dmax (BTK [4]),DC50 (BTK [4]),IC50 (Mino cells; Homo sapiens)
"Nc1ncnc2c1c(-c1ccc(Oc3ccccc3)cc1)nn2[C@@H]1CCCN(CC2CCN(C(=O)N3CCC(N4CCN(c5ccc6c(c5)CN(C5CCC(=O)NC5=O)C6=O)CC4)CC3)CC2)C1 (stereo partly drawn) [Compound 28, 3-(5-(4-(1-(4-(((R)-3-(4-amino-3-(4-phenoxyphenyl)-1H-pyrazolo(3,4-d)pyrimidin-1-yl)piperidin-1-yl)methyl)piperidine-1-carbonyl)piperidin-4-yl)piperazin-1-yl)-1-oxoisoindolin-2-yl)piperidine-2,6-dione]",dose-dependent degradation,,,dose-dependent degradation,dose-dependent degradation,,,,1 to 10 µM,,,> 90%,0.01 to 0.05 µM,< 1 µM
